# Measured values published in patent publication US10899738B2 (THE REGENTS OF THE UNIVERSITY OF MICHIGAN, priority 2016, dated 2021).
# Biological target: menin protein (Homo sapiens (Human), UniProt O00255)
# Assay: biochemical
# Assay type: binding
# Settings: FP competitive binding; menin protein 4 nM, FAM-MM2 probe 2 nM; read-out: Menin Binding Affinity IC50
# Protocol: A fluorescence polarization (FP) competitive binding assay was used to determine the binding affinities of representative menin inhibitors. A FAM labeled fluorescent probe was designed and synthesized based on a MLL1 peptide (FAM-MM2). Equilibrium dissociation constant (Kd) value of FAM-MM2 to menin protein was determined from protein saturation experiments by monitoring the total fluorescence polarization of mixtures composed with the fluorescent probe at a fixed concentration and the protein with increasing concentrations up to full saturation. Serial dilutions of the protein were mixed with FAM-MM2 to a final volume of 200 μl in the assay buffer (PBS with 0.02% Bovine γ-Globulin and 4% DMSO. 0.01% Triton X-100 was added right before assays). Final FAM-MM2 concentration was 2 nM. Plates were incubated at room temperature for 30 minutes with gentle shaking to assure equilibrium.
# The IC50, see Table 3, and Ki values of representative Compounds of the Disclosure were determined in a competitive binding experiment. Mixtures of 5 μl of the tested compounds in DMSO and 195 μl of preincubated protein/probe complex solution in the assay buffer were added into assay plates which were incubated at room temperature for 30 minutes with gentle shaking. Final concentration of the menin protein was 4 nM, and final probe concentration is 2 nM. […] FP values were measured as described above. IC50 values were determined by nonlinear regression fitting of the competition curves.
# Chain of menin protein (O00255 whole entry): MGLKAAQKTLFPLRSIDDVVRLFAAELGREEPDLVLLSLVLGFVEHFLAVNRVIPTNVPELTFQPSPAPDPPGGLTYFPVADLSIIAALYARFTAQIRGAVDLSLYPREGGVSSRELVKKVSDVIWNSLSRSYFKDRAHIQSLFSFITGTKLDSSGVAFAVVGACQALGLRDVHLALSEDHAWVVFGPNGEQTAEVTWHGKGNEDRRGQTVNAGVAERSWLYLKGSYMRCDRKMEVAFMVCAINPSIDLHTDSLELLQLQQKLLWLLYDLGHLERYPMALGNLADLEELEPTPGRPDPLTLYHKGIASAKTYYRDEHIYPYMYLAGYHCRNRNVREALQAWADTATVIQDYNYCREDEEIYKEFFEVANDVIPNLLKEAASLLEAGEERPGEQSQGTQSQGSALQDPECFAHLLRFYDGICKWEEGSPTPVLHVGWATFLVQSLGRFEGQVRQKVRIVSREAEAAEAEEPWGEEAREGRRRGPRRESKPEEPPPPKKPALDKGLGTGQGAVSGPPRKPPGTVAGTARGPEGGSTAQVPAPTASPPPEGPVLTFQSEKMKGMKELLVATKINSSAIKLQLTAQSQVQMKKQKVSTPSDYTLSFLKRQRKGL
row,SMILES,IC50
1,"CC(=O)O[C@@H]1CCC[C@H]1C(C#N)(c1ccccc1)C1CCN(CC2CN(c3ccc(S(=O)(=O)c4ccncc4)cc3)C2)CC1 (mixture of isomers) [compound 207, rac-(1R,2S)-2-(cyano(phenyl)(1-((1-(4-(pyridin-4-ylsulfonyl)phenyl)azetidin-3-yl)methyl)piperidin-4-yl)methyl)cyclopentyl acetate]",2800 nM
2,"N#CC(c1ccccc1)(C1CCN(CC2CN(c3ccc(S(=O)(=O)c4ccncc4)cc3)C2)CC1)[C@@H]1CCC[C@H]1OC(=O)C1CCC1 (mixture of isomers) [compound 208, rac-(1R,2S)-2-(cyano(phenyl)(1-((1-(4-(pyridin-4-ylsulfonyl)phenyl)azetidin-3-yl)methyl)piperidin-4-yl)methyl)cyclopentyl cyclobutanecarboxylate]",435 nM
3,"N#CC(c1ccccc1)(C1CCN(CC2CN(c3ccc(S(=O)(=O)c4ccncc4)cc3)C2)CC1)[C@H]1CCC[C@@H]1OC(=O)C1CCC1 (mixture of isomers) [compound 209, rac-(1S,2R)-2-(cyano(phenyl)(1-((1-(4-(pyridin-ylsulfonyl)phenyl)azetidin-3-yl)methyl)piperidin-4-yl)methyl)cyclopentyl cyclobutanecarboxylate]",111 nM
4,"N#CC(c1ccccc1)(C1CCN(CC2CN(c3ccc(S(=O)(=O)c4ccncc4)cc3)C2)CC1)[C@@H]1CCC[C@H]1OC(N)=O (mixture of isomers) [compound 212, rac-(1R,2S)-2-(cyano(phenyl)(1-((1-(4-(pyridin-4-ylsulfonyl)phenyl)azetidin-3-yl)methyl)piperidin-4-yl)methyl)cyclopentyl carbamate]",454 nM
5,"CCNC(=O)O[C@H]1CCC[C@@H]1C(C#N)(c1ccccc1)C1CCN(CC2CN(c3ccc(S(=O)(=O)c4ccncc4)cc3)C2)CC1 (mixture of isomers) [compound 213, rac-(1S,2R)-2-(cyano(phenyl)(1-((1-(4-(pyridin-4-ylsulfonyl)phenyl)azetidin-3-yl)methyl)piperidin-4-yl)methyl)cyclopentyl ethylcarbamate]",170 nM
6,"CCNC(=O)O[C@@H]1CCC[C@H]1C(C#N)(c1ccccc1)C1CCN(CC2CN(c3ccc(S(=O)(=O)c4ccncc4)cc3)C2)CC1 (mixture of isomers) [compound 214, rac-(1R,2S)-2-(cyano(phenyl)(1-((1-(4-(pyridin-4-ylsulfonyl)phenyl)azetidin-3-yl)methyl)piperidin-4-yl)methyl)cyclopentyl ethylcarbamate]",3400 nM
7,"CNC(=O)O[C@@H]1CCC[C@H]1C(C#N)(c1ccccc1)C1CCN(CC2CN(c3ccc(S(=O)(=O)c4ccncc4)cc3)C2)CC1 (mixture of isomers) [compound 216, rac-(1R,2S)-2-(cyano(phenyl)(1-((1-(4-(pyridin-4-ylsulfonyl)phenyl)azetidin-3-yl)methyl)piperidin-4-yl)methyl)cyclopentyl methylcarbamate]",396 nM
8,"CN(C)C(=O)O[C@H]1CCC[C@@H]1C(C#N)(c1ccccc1)C1CCN(CC2CN(c3ccc(S(=O)(=O)c4ccncc4)cc3)C2)CC1 (mixture of isomers) [compound 220, rac-(1S,2R)-2-(cyano(phenyl)(1-((1-(4-(pyridin-4-ylsulfonyl)phenyl)azetidin-3-yl)methyl)piperidin-4-yl)methyl)cyclopentyl dimethylcarbamate]",261 nM
9,"N#CC(c1ccccc1)(C1CCN(CC2CN(c3ccc(S(=O)(=O)c4ccncc4)cc3)C2)CC1)[C@H]1CCC[C@@H]1OC(=O)N1CCC1 (mixture of isomers) [compound 221, rac-(1S,2R)-2-(cyano(phenyl)(1-((1-(4-(pyridin-4-ylsulfonyl)phenyl)azetidin-3-yl)methyl)piperidin-4-yl)methyl)cyclopentyl azetidine-1-carboxylate]",75 nM
10,"N#CC(c1ccccc1)(C1CCN(CC2CN(c3ccc(S(=O)(=O)c4ccncc4)cc3)C2)CC1)[C@@H]1CCC[C@H]1OC(=O)N1CCC1 (mixture of isomers) [compound 222, rac-(1R,2S)-2-(cyano(phenyl)(1-((1-(4-(pyridin-4-ylsulfonyl)phenyl)azetidin-3-yl)methyl)piperidin-4-yl)methyl)cyclopentyl azetidine-1-carboxylate]",2000 nM
11,"N#CC(c1ccccc1)(C1CCN(CC2CN(c3ccc(S(=O)(=O)c4ccccc4)cc3)C2)CC1)[C@@H]1CCC[C@H]1OC(N)=O (mixture of isomers) [compound 224, rac-(1R,2S)-2-(cyano(phenyl)(1-((1-(4-(phenylsulfonyl)phenyl)azetidin-3-yl)methyl)piperidin-4-yl)methyl)cyclopentyl carbamate]",331 nM
12,"CNC(=O)O[C@H]1CCC[C@@H]1C(C#N)(c1ccccc1)C1CCN(CC2CN(c3ccc(S(=O)(=O)C4CC4)cc3)C2)CC1 (mixture of isomers) [compound 226, rac-(1S,2R)-2-(cyano(1-((1-(4-(cyclopropylsulfonyl)phenyl)azetidin-3-yl)methyl)piperidin-4-yl)(phenyl)methyl)cyclopentyl methylcarbamate]",14 nM
13,"CNC(=O)O[C@@H]1CCC[C@H]1C(C#N)(c1ccccc1)C1CCN(CC2CN(c3ccc(S(=O)(=O)C4CC4)cc3)C2)CC1 (mixture of isomers) [compound 227, rac-(1R,2S)-2-(cyano(1-((1-(4-(cyclopropylsulfonyl)phenyl)azetidin-3-yl)methyl)piperidin-4-yl)(phenyl)methyl)cyclopentyl methylcarbamate]",498 nM
14,"CNC(=O)O[C@@H]1CCC[C@H]1C(C#N)(c1ccccc1)C1CCN(CC2CN(c3ccc(S(=O)(=O)c4nn(C)cc4Br)cc3)C2)CC1 (mixture of isomers) [compound 229, rac-(1R,2S)-2-((1-((1-(4-((4-bromo-1-methyl-1H-pyrazol-3-yl)sulfonyl)phenyl)azetidin-3-yl)methyl)piperidin-4-yl)(cyano)(phenyl)methyl) cyclopentyl methylcarbamate]",160 nM
15,CNC(=O)O[C@@H]1CCC[C@H]1C(C#N)(c1ccccc1)C1CCN(CC2CN(c3ccc(S(=O)(=O)c4ccn(C)n4)cc3)C2)CC1 (mixture of isomers) [compound 231],68 nM
16,"CNC(=O)O[C@@H]1CCC[C@H]1C(C#N)(c1ccccc1)C1CCN(CCCOc2ccc(C#N)cc2)CC1 (mixture of isomers) [compound 233, rac-(1R,2S)-2-(cyano(1-(3-(4-cyanophenoxy)propyl)piperidin-4-yl)(phenyl)methyl)cyclopentyl methylcarbamate]",178 nM
17,"CNC(=O)O[C@@H]1CCC[C@H]1C(C#N)(c1ccccc1)C1CCN(C2CCN(c3ccc(S(=O)(=O)c4ccccc4)cc3)CC2)CC1 (mixture of isomers) [compound 235, rac-(1R,2S)-2-(cyano(phenyl)(1′-(4-(phenylsulfonyl)phenyl)-[1,4′-bipiperidin]-4-yl)methyl)cyclopentyl methylcarbamate]",6200 nM
18,"CNC(=O)O[C@H]1CCC[C@@H]1C(Cn1ccnc1)(c1ccccc1)C1CCN(CC2CN(c3ccc(S(=O)(=O)c4ccccc4)cc3)C2)CC1 (mixture of isomers) [compound 236, rac-(1S,2R)-2-(2-(1H-imidazol-1-yl)-1-phenyl-1-(1-((1-(4-(phenylsulfonyl)phenyl)azetidin-3-yl)methyl)piperidin-4-yl)ethyl)cyclopentyl methylcarbamate]",12 nM
19,"CNC(=O)O[C@@H]1CCC[C@H]1C(Cn1ccnc1)(c1ccccc1)C1CCN(CC2CN(c3ccc(S(=O)(=O)c4ccccc4)cc3)C2)CC1 (mixture of isomers) [compound 237, rac-(1R,2S)-2-(2-(1H-imidazol-1-yl)-1-phenyl-1-(1-((1-(4-(phenylsulfonyl)phenyl)azetidin-3-yl)methyl)piperidin-4-yl)ethyl)cyclopentyl methylcarbamate]",42 nM
20,"CNC(=O)O[C@@H]1CCC[C@H]1C(Cn1ccnc1)(c1ccccc1)C1CCN(CC2CN(c3ccc(S(=O)(=O)c4cnn(C)c4)cc3)C2)CC1 (mixture of isomers) [compound 239, rac-(1R,2S)-2-(2-(1H-imidazol-1-yl)-1-(1-((1-(4-((1-methyl-1H-pyrazol-4-yl)sulfonyl)phenyl)azetidin-3-yl)methyl)piperidin-4-yl)-1-phenethyl)cyclopentyl methylcarbamate]",46 nM
21,"CNC(=O)O[C@@H]1CCC[C@H]1C(C#N)(c1ccccc1)C1CCN(CC2CN(c3ccc(S(=O)(=O)c4cnn(C)c4)cc3)C2)CC1 (mixture of isomers) [compound 241, rac-(1R,2S)-2-(cyano(1-((1-(4-((1-methyl-1H-pyrazol-4-yl)sulfonyl)phenyl)azetidin-3-yl)methyl)piperidin-4-yl)(phenyl)methyl)cyclopentyl methylcarbamate]",849 nM
22,"CS(=O)(=O)CO[C@H]1CCC[C@@H]1C(C#N)(c1ccccc1)C1CCN(CC2CN(c3ccc(S(=O)(=O)c4ccncc4)cc3)C2)CC1 (mixture of isomers) [compound 253, rac-2-((1R,2S)-2-((methylsulfonyl)methoxy)cyclopentyl)-2-phenyl-2-(1-((1-(4-(pyridin-4-ylsulfonyl)phenyl)azetidin-3-yl)methyl)piperidin-4-yl)acetonitrile]",14400 nM
23,"CS(=O)(=O)CO[C@@H]1CCC[C@H]1C(C#N)(c1ccccc1)C1CCN(CC2CN(c3ccc(S(=O)(=O)c4ccncc4)cc3)C2)CC1 (mixture of isomers) [compound 254, rac-2-((1S,2R)-2-((methylsulfonyl)methoxy)cyclopentyl)-2-phenyl-2-(1-((1-(4-(pyridin-4-ylsulfonyl)phenyl)azetidin-3-yl)methyl)piperidin-4-yl)acetonitrile]",23200 nM
